From the supplement of paper PMC10307832

Experiments:
Assay in all cases: relative viability (nuclei count vs DMSO), 5 days (fraction); higher = more cells survive
RO-3306 = compound: C1=CC2=C(C=CC(=C2)C=C3C(=O)NC(=NCC4=CC=CS4)S3)N=C1 [RO-3306]
Procedure, shortened: (§1)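 MetaXpress counted nuclei in 4× images of lung cancer cell lines that had been fixed, permeabilised and Hoechst-stained in one step. Before that, cells in 1536-well plates were kept overnight at 37 °C, pinned with five √10-spaced library-drug doses on vehicle-anchored plates, and cultured 5 days without medium change. Viability takes treated-well nuclei over vehicle-well nuclei and uses the median across plates. Plates were accepted only at control CV below 25% and at least one doubling.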

[1] = compound: O=S(=O)(c1ccccc1)N(CC(F)(F)F)c1ccc(C(O)(C(F)(F)F)C(F)(F)F)cc1
Procedure, shortened: as §1

Foretinib = compound: COc1cc2c(Oc3ccc(NC(=O)C4(C(=O)Nc5ccc(F)cc5)CC4)cc3F)ccnc2cc1OCCCN1CCOCC1 [Foretinib] (anchor plate); details: 0.25 µM
Procedure, shortened: as §1

RO-3306 + Phenformin = compound: C1=CC2=C(C=CC(=C2)C=C3C(=O)NC(=NCC4=CC=CS4)S3)N=C1 [RO-3306] + N=C(N)NC(=N)NCCc1ccccc1 [Phenformin] (partner 250 µM)
Procedure, shortened: (§2)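 Relative viability is defined as nuclei in treated wells over nuclei in vehicle wells. Duplicate plates were run and medians reported. Lung cancer cell lines in 1536-well plates were dosed by pin tool one day after seeding, with one drug or with a fixed anchor-drug dose plus five library-drug doses (not always all listed) in √10 steps, and nuclei were counted after 5 days.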

RO-3306 + Dasatinib = compound: C1=CC2=C(C=CC(=C2)C=C3C(=O)NC(=NCC4=CC=CS4)S3)N=C1 [RO-3306] + Cc1nc(Nc2ncc(C(=O)Nc3c(C)cccc3Cl)s2)cc(N2CCN(CCO)CC2)n1 [Dasatinib] (partner 0.075 µM)
Procedure, shortened: as §2

Cell Line: UMC-11
- relative viability (RO-3306; 0.01 µM): 1.09
- relative viability (RO-3306; 0.03162 µM): 0.855
- relative viability (RO-3306; 0.1 µM): 0.969
- relative viability (RO-3306; 0.3162 µM): 1.05
- relative viability (RO-3306; 1 µM): 0.828
- relative viability ([1]; 0.8 µM): 1.06
- relative viability ([1]; 2.53 µM): 0.985
- relative viability ([1]; 8 µM): 1.11
- relative viability (Foretinib): 1.03
- relative viability (RO-3306 + Phenformin; first compound 0.01 µM): 0.351
- relative viability (RO-3306 + Phenformin; first compound 0.03162 µM): 0.291
- relative viability (RO-3306 + Phenformin; first compound 0.1 µM): 0.3
- relative viability (RO-3306 + Phenformin; first compound 0.3162 µM): 0.366
- relative viability (RO-3306 + Phenformin; first compound 1 µM): 0.315
- relative viability (RO-3306 + Dasatinib; first compound 0.01 µM): 0.553
- relative viability (RO-3306 + Dasatinib; first compound 0.03162 µM): 0.341
- relative viability (RO-3306 + Dasatinib; first compound 0.1 µM): 0.432
- relative viability (RO-3306 + Dasatinib; first compound 0.3162 µM): 0.546
- relative viability (RO-3306 + Dasatinib; first compound 1 µM): 0.453
